Reference: publication PMC5005245, “Chemical and pharmacological evaluations on the extract of Scutellaria baicalensis Georgi (Huang-Qin) prepared by various extraction methods” (SpringerPlus, 2016)

Experiments:
[1] = DPPH free radicals scavenging assay; settings: concentration of sample which scavenges 50 % of free radicals; 30 min; mean ± SEM (n = 3)
Procedure: The free radicals scavenging capacities (SC) were measured and compared using the DPPH assay (Chan et al. [2010]). Briefly, 5 µl of individual extract (0.625–10 mg/ml) was mixed with 195 μl of DPPH solution (24 mg/l) in a 96-well plate. The reaction was allowed to proceed in the dark for 30 min before the absorbance of the resultant solution was measured at 515 nm using a Micro-plate Absorbance Reader (Bio-Rad, CA, USA). Ascorbic acid (Sigma-Aldrich Chemicals Co., MO, USA) in distilled water served as the positive control. SC50 was estimated as the concentration of sample which scavenges 50 % of free radicals.

[2] = FRAP assay; settings: positive control, 1 mM was used; mean ± SEM (n = 3)
Procedure: The FRAP assay was performed in a 96-well plate as described (Firuzi et al. [2005]). Briefly, 5 µl of each sample was mixed with 150 µl of freshly prepared FRAP reagent (250 mM acetate buffer, pH 3.6; 8.3 mM 2,4,6-tripyridyl-s-triazine dissolved in 40 mM HCl and 16.7 mM FeCl3·6H2O solution). After incubation at 37 °C for 30 min, the absorbance of the solution was measured at 593 nm. Different concentrations of Fe^2+ standard solution were used for the construction of the standard curve, and ascorbic acid was used as the positive control.

Compound: O=C1O[C@H]([C@@H](O)CO)C(O)=C1O [Ascorbic acid]
- DPPH assay (SC50) [1]: 0.107 ± 0.004 mg/mL
- FRAP assay [2]: 2278 ± 15 μmol Fe^2+/mg extract
